Reference: patent US8017579B2, “Treatment of viral infections” (priority 2003, dated 2011)
“And” between values parts separate entries of the source, which are not always exact repeats. Equal entries are not always repeated. Where two headings read alike, the source gives them in different places. Ends that are not written are not given here.

How the values were obtained:
HSV1 [1] = type: cell-based, herpes simplex virus type 1; conditions: for antiviral activity against HSV1 (in words): HSV1 plaque assay, Vero cells
Method: African Green Monkey Kidney (Vero) cells were maintained in Eagle's minimum essential medium with Earle's salt (EMEM) and supplemented with 10% foetal calf serum (heat-inactivated), 4 mM L-glutamine, and 1% (v/v) nonessential amino acids, plus penicillin and streptomycin (100 IU/ml and 100 μg/ml, respectively) (maintenance medium referred to as 10% EMEM). The cells were incubated at 37° C. in a humidified atmosphere of air with 5% CO2.
On harvesting, monolayers were washed in phosphate-buffered saline (PBS), and dislodged by incubating with trypsin in PBS for 30 min, before inactivating trypsin by addition of an equal volume of 10% EMEM and centrifuging at 500 g (5 min, 4° C.). Cell pellets were resuspended in 10% EMEM, prior to cell counting and seeding of 24-well plates. For antiviral assays, medium containing only 0.5% FCS was used (referred to as 0.5% EMEM).
Three separate passages of HSV1 virus were prepared by infecting Vero cells, and preparing semi-pure suspensions of virus from tissue culture supernatant and cell lysates, before freezing aliquots of virus at −85° C. Viral infectivity was assessed by carrying out plaque assays on serial dilutions of thawed aliquots (expressed in pfu/ml).
Peptides were obtained in lyophilised form from a commercial supplier (AltaBioscience, University of Birmingham or Advanced Biomedical), and were produced at 5 micromole scale. N-terminals were protected by addition of an acetyl group, and the C-terminals were protected by addition of an amide group.
Small quantities of peptide were weighed in sterile Eppendorf tubes, before addition of sufficient 0.5% EMEM to produce a 1.5 mM stock solution, which was frozen at −20° C. in aliquots.
(§1) Vero cells were seeded at 125,000 cells per well in 10% EMEM, and were incubated overnight resulting in confluent monolayers. Peptides were diluted in 0.5% EMEM to give 2× final desired concentration, and 100 μl aliquots were arranged on 96-well plates in arrangement to be used for 24-well plate; control wells containing normal 0.5% EMEM were also prepared. Virus stocks (p3) were thawed, and diluted in 0.5% EMEM such that there were around 100 pfu in 100 μl. Each 24-well plate was inoculated separately. Firstly 100 μl of virus stock was added to the peptide or control medium arranged on a 96-well plate. This was incubated at 37° C. for ten minutes before inoculation. Medium was removed from four wells of a 24-well plate containing confluent Vero, and the 200 μl inoculum added to the appropriate well. Once all wells were treated, the 24-well plate was incubated for a further 60-80 minutes. Finally the peptide-containing inoculum was removed, and 1 ml of 1% EMEM containing 1% carboxymethylcellulose was added to each well. Plates were incubated for a further 22 hours, before removal of overlay, and addition of 10% formaldehyde in PBS. After a further one hour incubation, fixative was removed, monolayers washed several times with tap water, and stained with carbol fuchsin solubilised in water. After 30 minutes stain was removed, and plates washed several times with tap water, before being air dried. Plaques were counted using an Olympus IX70 Inverting Microscope, and antiviral effect expressed as a percentage of the control value for each peptide concentration. The IC50 was calculated from plots of inhibitory effect against peptide concentration.
The methods employed were as described in Examples 1-4 expect peptides were prepared as 400 μM stocks in phosphate buffered saline (PBS).

bacteria = conditions: Azuma et al., Peptides, 21: 327-330 (2000); cited from earlier work
HSV2 clinical isolates = type: cell-based, herpes simplex virus type 2
Method: as §1
Plaque assays were performed. The methodology was as described in previous Examples for HSV1 plaque assays (including usage of Vero cells) except HSV2 clinical isolates (provided by Prof. Anthony Hart of Liverpool University) were employed instead.

HSV2 = HSV2 plaque formation in HEp-2 cells (Example 1); type: cell-based, herpes simplex virus type 2; conditions: HSV2, HEp-2 cells
Method: (§2) FIG. 1 and table 1 show typical results for the test for anti-HSV1 activity. The assay involved treating confluent Vero cells in 24-well plates with medium containing virus and varying amounts of peptide for one hour, followed by removal of this inoculum, and addition of viscous ‘overlay’ medium, containing 0.2% high viscosity carboxymethylcellulose. The overlay medium only allows infection of those cells immediately adjacent to an infected cell. After 2 days incubation and then fixation and staining, small patches of infected cells (or ‘plaques’) are visible, which are counted. Each of these corresponds to the infection of a single cell during the one hour inoculation. ApoE141-149dp produced a 40% reduction in plaque number at a concentration of around 20 μM. Note the peptide was only present in the experimental system for 1 hour.
FIG. 2 and table 2 show typical results for the test for anti-HSV2 activity. The assay was carried out as for the anti-HSV1 assay, except Hep-2 cells were used rather than Vero cells. ApoE141-149dp produced a 50% reduction in plaque number at a concentration of around 20 μM. Again note that the peptide was only present in the experimental system for 1 hour.

HIV-1 = conditions: 7 days; for % Decrease in HIV p24 Production, Mean ± sd / % Decrease in HIV p24 Production, Exp. 1-3: U937 cells
Method: The assay was carried out by incubating HIV infected U937 cells in the presence of various levels of peptide for 7 days, followed by assay for levels of the HIV protein p24 in the cells using an Enzyme Linked Immunoabsorbant Assay (ELISA) technique.

HSV1 [2] = assay: HSV1 plaque formation in Vero cells (Example 1); type: cell-based, herpes simplex virus type 1
Method: as §2

[3] = 5 μM peptide, untreated mean 152 ± 10.7

LRWRKRWRKLRWRKRWRK-NH2 (C-terminus assumed) [MU_35]
IC50 (HSV1 [1]): > 15 µM

RRWRKRWRKWRWRKRWRK-NH2 (C-terminus assumed) [MU_28]
IC50 (HSV1 [1]): 7.5 µM

apoE 134-155: peptide derivative of apoE tested for antibacterial action (Azuma et al.) (RVRLASHLRKLRKRLLRDADDL; UniProt P02649 152-173, looked up, fragment)
antibacterial action (in words) (bacteria): little effect

RWRKRGRKRWRKRGRK-NH2 (C-terminus assumed) [MU_69]
IC50 (HSV1 [1]): 13 µM

Ac-HMLDVMQDHFSRASSIIDEL (N-terminus assumed) [GIN 29]
IC50 (HSV1 [1]): 38.5 µM

KRWRKRWRKKRWRKRWRK-NH2 (C-terminus assumed) [MU_34]
IC50 (HSV1 [1]): 9 µM

LRTRKRGRKLRTRKRGRK-NH2 (C-terminus assumed) [GIN 16]
IC50 (HSV1 [1]): 22 µM
antiviral activity against HSV1 (in words) (HSV1 [1]): showed antiviral activity
antiviral activity against HSV1 (in words) (HSV1 [1]; listed as GIN16): appreciable antiviral effect

HRWRKRWRKHRWRKRWRK-NH2 (C-terminus assumed) [MU_36]
IC50 (HSV1 [1]): 10 µM

RWRKRWRKRWRKRWRK-NH2 (C-terminus assumed) [MU_71]
IC50 (HSV1 [1]): 16 µM

Ac-RLRARMEEMRLRARMEEM-NH2 (N-terminus and C-terminus assumed) [GIN 15]
IC50 (HSV1 [1]): > 40 µM

RWRKRWRKWRWRKRWRK-NH2 (C-terminus assumed) [MU_32]
IC50 (HSV2 clinical isolates): > 20 µM
IC50 (HSV1 [1]): 7.5 µM

ApoE263-286: peptide from a region of apolipoprotein E that is not involved in HSPG receptor binding (SWFEPLVEDMQRQWAGLVEKVQAA; UniProt P02649 281-304, looked up, fragment)
Plaque number, Mean ± sd (HSV2; [3]): 152 ± 12.0
Plaque number, wells 1-4 (HSV2; [3]): 135 and 160 and 161 and 152
Plaque number, Mean ± sd (HSV2; 10 μM peptide): 141 ± 16.1
Plaque number, wells 1-4 (HSV2; 10 μM peptide): 157 and 121 and 151 and 134
Plaque number, Mean ± sd (HSV2; 20 μM peptide): 146 ± 27.3
Plaque number, wells 1-4 (HSV2; 20 μM peptide): 118 and 150 and 182 and 134
Plaque number, Mean ± sd (HSV2; 30 μM peptide): 124 ± 24.2
Plaque number, wells 1-4 (HSV2; 30 μM peptide): 118 and 117 and 103 and 159
Plaque number, Mean ± sd (HSV2; 40 μM peptide): 131 ± 24.2
Plaque number, wells 1-4 (HSV2; 40 μM peptide): 132 and 144 and 125 and 124
reduction in infectivity (HIV-1; HIV infected U937 cells, 20 μM): 20%
% Decrease in HIV p24 Production, Mean ± sd (HIV-1; 10 μM peptide): 23.21 ± 12.79%
% Decrease in HIV p24 Production, Mean ± sd (HIV-1; 20 μM peptide): 22.77 ± 13.07%
% Decrease in HIV p24 Production, Exp. 1-3 (HIV-1; 30 μM peptide): 37.94% and 27.83% and 41.78%
% Decrease in HIV p24 Production, Mean ± sd (HIV-1; 30 μM peptide): 35.85 ± 7.21%
% Decrease in HIV p24 Production, Mean ± sd (HIV-1; 40 μM peptide): 38.87 ± 12.70%
% Decrease in HIV p24 Production, Exp. 1-3 (HIV-1; 50 μM peptide): 33.36% and 41.45% and 45.66%
% Decrease in HIV p24 Production, Mean ± sd (HIV-1; 50 μM peptide): 40.16 ± 6.25%
Plaque number, wells 1-4 (HSV1 [2]; 5 μM peptide in inoculum for 1 hour, untreated mean 107 ± 14.2): 113 and 119 and 122 and 126
Plaque number, Mean ± sd (HSV1 [2]; 5 μM peptide, untreated mean 107 ± 14.2): 120 ± 5.5
Plaque number, Mean ± sd (HSV1 [2]; 10 μM peptide): 114 ± 11.1
Plaque number, wells 1-4 (HSV1 [2]; 10 μM peptide): 116 and 124 and 102
Plaque number, Mean ± sd (HSV1 [2]; 20 μM peptide): 127 ± 17.0
Plaque number, wells 1-4 (HSV1 [2]; 20 μM peptide): 148 and 112 and 133 and 114
Plaque number, Mean ± sd (HSV1 [2]; 30 μM peptide): 121 ± 11.2
Plaque number, wells 1-4 (HSV1 [2]; 30 μM peptide): 134 and 109 and 114 and 125
Plaque number, Mean ± sd (HSV1 [2]; 40 μM peptide): 126 ± 11.2
Plaque number, wells 1-4 (HSV1 [2]; 40 μM peptide): 120 and 113 and 125 and 144

LRKRKRLRKLRKRKRLRK-NH2 (C-terminus assumed) [GIN 38]
IC50 (HSV1 [1]): 9 µM
antiviral activity against HSV1 (in words) (HSV1 [1]): have antiviral activity

GERLRARMEGERLRARME-NH2 (C-terminus assumed) [GIN 14]
IC50 (HSV1 [1]): > 40 µM
antiviral activity against HSV1 (in words) (HSV1 [1]): no antiviral activity

ApoE 133-162: peptide derivative of apoE with antibacterial action (Azuma et al.) (LRVRLASHLRKLRKRLLRDADDLQKRLAVY; UniProt P02649 151-180, looked up, fragment)
antibacterial action (in words) (bacteria): most effective

RWRKRWRWRKRWRWRKRW-NH2 (C-terminus assumed) [MU_84]
IC50 (HSV1 [1]): 10 µM

LRWRKRWRKWRWRKRWRK-NH2 (C-terminus assumed) [MU_30]
IC50 (HSV1 [1]): 7.5 µM

RRWRKRWRKRRWRKRWRK-NH2 (C-terminus assumed) [MU_33]
IC50 (HSV2 clinical isolates): > 20 µM
IC50 (HSV1 [1]): 6.5 µM

RTRKRGRRTRKRGR-NH2 (C-terminus assumed) [GIN 36]
IC50 (HSV1 [1]): 9 µM
antiviral activity against HSV1 (in words) (HSV1 [1]): have antiviral activity

RTRKRGRKRTRKRGRK-NH2 (C-terminus assumed) [GIN 35]
IC50 (HSV1 [1]): 9 µM
antiviral activity against HSV1 (in words) (HSV1 [1]): have antiviral activity

RTRKRWRKRTRKRGRK-NH2 (C-terminus assumed) [MU_70]
IC50 (HSV2 clinical isolates): > 20 µM
IC50 (HSV1 [1]): 9.5 µM

KRWRKRWRKWRWRKRWRK-NH2 (C-terminus assumed) [MU_29]
IC50 (HSV1 [1]): 7.5 µM

HRWRKRWRKWRWRKRWRK-NH2 (C-terminus assumed) [MU_31]
IC50 (HSV1 [1]): 7.5 µM

LRKRKRLLRKRKRL-NH2 (C-terminus assumed) [GIN 37]
IC50 (HSV1 [1]): 9 µM
antiviral activity against HSV1 (in words) (HSV1 [1]): have antiviral activity

RWRKRWRKRWRKRWRK-NH2 (C-terminus assumed) [MU_37]
IC50 (HSV1 [1]): 12.5 µM
